Assays:
[1] = target: T1, human TRPM2 (hTRPM2) channel (Homo sapiens, UniProt O94759); assay: Single-channel outside-out recordings from HEK-hTRPM2 cells; format: cell-based
T1 construct: expressed in transfected cells; host or cells: HEK293 cells with tetracycline-inducible expression of hTRPM2 (HEK-hTRPM2)
Description: (§1) Human embryonic kidney 293 (HEK293) cells with tetracycline-inducible expression of human TRPM2 channel (hTRPM2) were cultured in a mixed medium containing DMEM/ F-12 (Gibco, USA) and 10% fetal bovine serum (Gibco, USA) as well as blasticidin (50 μg/ml, Invivogen, USA) and zeocin (0.4 mg/ml, Invivogen, USA). The expression of hTRPM2 was induced by substituting blasticin and zeocin for tetracycline (1 μg/ml, Sigma, USA) 24-48 hours before use. TRPM2 channel mutants were transiently expressed in HEK293T cells by transfection with using Lipofectamine 3000. Briefly, HEK293T cells were transiently transfected with cDNAs encoding the mutant hTRPM2 channel. The cDNA for GFP was co-transfected as a marker for identification of the transfected cells for electrophysiological experiments 16-24 hours after transfection. All the cells were seeded on 96-well coverslips (3 x 3 mm, WHB) and cultured at 37 °C under a humidified atmosphere containing 5% CO2.
Coronal cortical slices were transferred into the recording chamber and continuously perfused at room temperature with ACSF oxygenated with 95% O2 and 5% CO2. Cortical pyramidal neurons were visualized by an upright microscope (Carl Zeiss) equipped with a CCD monochrome video camera (IR-1000, DAGE-MTI) and identified by their localization in Layer V. Electrophysiology data were sampled (50 kHz) and lowpass filtered (5kHz four-pole Bessel filter) by a MultiClamp 700B dual channel amplifier (Molecular Devices). The patch electrodes were pulled from borosilicate capillary glass (1.5 mm outer diameter; 0.86 mm inner diameter; World Precision Instruments, USA) with a horizontal multi-step micropipette puller (Model, P-1000, Sutter Instrument). […] After forming >1 GΩ resistance seal in cell-attached configuration, we broke the patch membrane and kept the neurons at -64 mV and then performed whole-cell current-clamp recordings. Cells requiring holding current > -150 pA at -60 mV were discarded. The resting membrane potential (Vrest) was tested in I = 0 configuration. […] For whole-cell or single channel recordings from transfected HEK-293T cells, the coverslips were placed in a culture dish (35 × 35 mm, Sorfa) containing HEPES based extracellular solution (ECS) and recorded by patch-clamp technique. […] Each coverslip was recorded only once with different drug exposures. […] The excised patches were voltage-clamped from -80 mV to +80 mV (in 20 mV increasement) to generate the current-voltage (I-V) relationship of single channel currents from which their main conductance was calculated from the slope by linear regression of the mean current amplitude at different potentials. […]

[2] = system: cortical neurons in adult Trpm2+/+ brain slices; settings: bilirubin, 1 h of incubation, n = 6
[3] = target: T2, TRPM2-ΔN/ΔC (Homo sapiens, UniProt O94759); assay: Whole-cell patch-clamp, truncation mutant; format: cell-based; settings: bilirubin
T2 construct: expressed in transfected cells; host or cells: HEK293T cells, transient transfection, GFP cDNA co-transfected as a separate marker
T2 sequence (O94759 1-1449 isoform O94759-2): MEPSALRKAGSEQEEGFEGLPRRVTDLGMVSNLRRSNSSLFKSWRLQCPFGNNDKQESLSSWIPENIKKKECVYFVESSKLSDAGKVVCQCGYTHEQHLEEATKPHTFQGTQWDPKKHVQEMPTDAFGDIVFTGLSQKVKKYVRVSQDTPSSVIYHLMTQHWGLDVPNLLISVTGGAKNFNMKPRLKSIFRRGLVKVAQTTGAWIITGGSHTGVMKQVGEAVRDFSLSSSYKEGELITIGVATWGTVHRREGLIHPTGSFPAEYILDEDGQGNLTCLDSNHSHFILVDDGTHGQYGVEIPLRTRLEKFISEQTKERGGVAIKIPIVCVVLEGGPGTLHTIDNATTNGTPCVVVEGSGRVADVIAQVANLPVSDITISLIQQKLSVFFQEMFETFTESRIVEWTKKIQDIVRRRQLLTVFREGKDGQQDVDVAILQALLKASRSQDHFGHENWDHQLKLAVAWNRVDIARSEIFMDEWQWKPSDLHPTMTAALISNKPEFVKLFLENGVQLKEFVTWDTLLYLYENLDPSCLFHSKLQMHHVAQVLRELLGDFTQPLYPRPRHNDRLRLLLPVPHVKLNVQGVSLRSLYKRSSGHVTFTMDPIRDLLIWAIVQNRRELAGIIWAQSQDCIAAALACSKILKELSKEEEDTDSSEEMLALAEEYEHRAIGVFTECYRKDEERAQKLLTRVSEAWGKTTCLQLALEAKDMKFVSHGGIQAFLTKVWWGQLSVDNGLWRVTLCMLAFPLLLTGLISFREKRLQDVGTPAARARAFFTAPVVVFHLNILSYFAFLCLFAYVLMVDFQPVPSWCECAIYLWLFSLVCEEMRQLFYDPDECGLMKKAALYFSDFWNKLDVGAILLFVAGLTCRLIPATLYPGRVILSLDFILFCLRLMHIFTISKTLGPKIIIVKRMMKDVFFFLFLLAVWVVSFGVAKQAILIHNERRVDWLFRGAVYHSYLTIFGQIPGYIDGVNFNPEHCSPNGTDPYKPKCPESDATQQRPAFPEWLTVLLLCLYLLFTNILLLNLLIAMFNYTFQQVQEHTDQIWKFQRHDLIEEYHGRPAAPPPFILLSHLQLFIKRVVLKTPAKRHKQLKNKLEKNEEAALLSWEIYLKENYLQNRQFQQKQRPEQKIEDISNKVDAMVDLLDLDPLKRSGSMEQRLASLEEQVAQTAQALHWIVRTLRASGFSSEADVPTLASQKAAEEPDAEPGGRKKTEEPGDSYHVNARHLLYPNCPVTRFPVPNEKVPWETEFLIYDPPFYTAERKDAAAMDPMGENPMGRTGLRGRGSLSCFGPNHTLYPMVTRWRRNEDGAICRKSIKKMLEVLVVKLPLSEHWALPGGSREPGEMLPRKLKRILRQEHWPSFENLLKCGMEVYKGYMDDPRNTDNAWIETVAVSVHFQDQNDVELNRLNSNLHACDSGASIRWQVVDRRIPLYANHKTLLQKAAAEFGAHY
Description: as §1, with “All the cells were seeded on 96-well coverslips (3 x 3 mm, WHB) and cultured at 37 °C under a humidified atmosphere containing 5% CO2.” left out
(§2) Coronal cortical slices were transferred into the recording chamber and continuously perfused at room temperature with ACSF oxygenated with 95% O2 and 5% CO2. […] For whole-cell or single channel recordings from transfected HEK-293T cells, the coverslips were placed in a culture dish (35 × 35 mm, Sorfa) containing HEPES based extracellular solution (ECS) and recorded by patch-clamp technique. […] Each coverslip was recorded only once with different drug exposures. […]

[4] = system: hTRPM2 pore mutants (P983A, D987A, A1046C, N1049C); assay: Whole-cell patch-clamp, pore mutants; format: cell-based, human; settings: bilirubin
[5] = system: cortical pyramidal neurons from D1066A KI mice; assay: Whole-cell current-clamp, intrinsic excitability in brain slices, D1066A KI; format: cell-based, mouse; settings: prolonged perfusion time
[6] = system: tMCAO Trpm2−/− mice; assay: tMCAO ischemia model, infarct volume by TTC staining, Trpm2-/- mice; format: in vivo, mouse; settings: 24 h after tMCAO
[7] = target: T1, human TRPM2 (hTRPM2) channel; assay: Whole-cell patch-clamp of TRPM2 currents (voltage ramps) in HEK-hTRPM2 cells; format: cell-based
Description: as §1
Coronal cortical slices were transferred into the recording chamber and continuously perfused at room temperature with ACSF oxygenated with 95% O2 and 5% CO2. Cortical pyramidal neurons were visualized by an upright microscope (Carl Zeiss) equipped with a CCD monochrome video camera (IR-1000, DAGE-MTI) and identified by their localization in Layer V. Electrophysiology data were sampled (50 kHz) and lowpass filtered (5kHz four-pole Bessel filter) by a MultiClamp 700B dual channel amplifier (Molecular Devices). The patch electrodes were pulled from borosilicate capillary glass (1.5 mm outer diameter; 0.86 mm inner diameter; World Precision Instruments, USA) with a horizontal multi-step micropipette puller (Model, P-1000, Sutter Instrument). […] After forming >1 GΩ resistance seal in cell-attached configuration, we broke the patch membrane and kept the neurons at -64 mV and then performed whole-cell current-clamp recordings. Cells requiring holding current > -150 pA at -60 mV were discarded. The resting membrane potential (Vrest) was tested in I = 0 configuration. Intrinsic excitability was tested by 500 ms long current steps between -200 and +400 pA with 50-pA increments in the presence of blockers for AMPA, NMDA, and GABA receptors (APV, 50 μM; NBQX, 10 μM; bicuculine 10 μM, strychnine 1 μM). Only one recording was conducted per brain slice. For whole-cell or single channel recordings from transfected HEK-293T cells, the coverslips were placed in a culture dish (35 × 35 mm, Sorfa) containing HEPES based extracellular solution (ECS) and recorded by patch-clamp technique. Cells were visualized by using the phase-contrast mode of an inverted microscope (TE-2000U; Nikon, Japan) and the patch pipette was positioned on the cells using a motorized micromanipulator (MP-225; Sutter) under the microscope. The transfected cells were voltage-clamped at 0 mV and subjected to voltage ramps from -100 mV to +100 mV (500 ms duration) every 5 s. The basal ramp current (i.e., the trace when the leak current is stable after membrane rupture) before channel activation were used for leak subtraction of all subsequent ramp currents. Each coverslip was recorded only once with different drug exposures. Single-channel recordings were carried out under outside-out configuration, using pipettes with resistance of 6-8 MΩ. The excised patches were voltage-clamped from -80 mV to +80 mV (in 20 mV increasement) to generate the current-voltage (I-V) relationship of single channel currents from which their main conductance was calculated from the slope by linear regression of the mean current amplitude at different potentials. Single-channel recordings of the cortical neurons were performed by adding 4-AP, TEA-Cl, CsCl2 and TTX to block sodium channel, potassium channel and calcium channel.
The cutting solution for brain slices contained the following (in mM): 87 NaCl, 75 sucrose, 2.5 KCl, 10 glucose, 1.25 NaH2PO4, 2 Na-pyruvate, 3 myo-inositol, 0.5 ascorbic acid, 26 NaHCO3,7 MgCl2, and 0.1 CaCl2 (pH 7.4; 290-320 mOsm).

[8] = target: T3, hTRPM2 R302A/R358A (Homo sapiens, UniProt O94759, R302A/R358A); assay: Whole-cell patch-clamp, N-terminal ADPR-binding site mutant; format: cell-based; settings: bilirubin
T3 construct: expressed in transfected cells; host or cells: HEK293T cells, transient transfection (Lipofectamine 3000), GFP cDNA co-transfected as a separate marker
T3 sequence (O94759 whole entry R302A/R358A): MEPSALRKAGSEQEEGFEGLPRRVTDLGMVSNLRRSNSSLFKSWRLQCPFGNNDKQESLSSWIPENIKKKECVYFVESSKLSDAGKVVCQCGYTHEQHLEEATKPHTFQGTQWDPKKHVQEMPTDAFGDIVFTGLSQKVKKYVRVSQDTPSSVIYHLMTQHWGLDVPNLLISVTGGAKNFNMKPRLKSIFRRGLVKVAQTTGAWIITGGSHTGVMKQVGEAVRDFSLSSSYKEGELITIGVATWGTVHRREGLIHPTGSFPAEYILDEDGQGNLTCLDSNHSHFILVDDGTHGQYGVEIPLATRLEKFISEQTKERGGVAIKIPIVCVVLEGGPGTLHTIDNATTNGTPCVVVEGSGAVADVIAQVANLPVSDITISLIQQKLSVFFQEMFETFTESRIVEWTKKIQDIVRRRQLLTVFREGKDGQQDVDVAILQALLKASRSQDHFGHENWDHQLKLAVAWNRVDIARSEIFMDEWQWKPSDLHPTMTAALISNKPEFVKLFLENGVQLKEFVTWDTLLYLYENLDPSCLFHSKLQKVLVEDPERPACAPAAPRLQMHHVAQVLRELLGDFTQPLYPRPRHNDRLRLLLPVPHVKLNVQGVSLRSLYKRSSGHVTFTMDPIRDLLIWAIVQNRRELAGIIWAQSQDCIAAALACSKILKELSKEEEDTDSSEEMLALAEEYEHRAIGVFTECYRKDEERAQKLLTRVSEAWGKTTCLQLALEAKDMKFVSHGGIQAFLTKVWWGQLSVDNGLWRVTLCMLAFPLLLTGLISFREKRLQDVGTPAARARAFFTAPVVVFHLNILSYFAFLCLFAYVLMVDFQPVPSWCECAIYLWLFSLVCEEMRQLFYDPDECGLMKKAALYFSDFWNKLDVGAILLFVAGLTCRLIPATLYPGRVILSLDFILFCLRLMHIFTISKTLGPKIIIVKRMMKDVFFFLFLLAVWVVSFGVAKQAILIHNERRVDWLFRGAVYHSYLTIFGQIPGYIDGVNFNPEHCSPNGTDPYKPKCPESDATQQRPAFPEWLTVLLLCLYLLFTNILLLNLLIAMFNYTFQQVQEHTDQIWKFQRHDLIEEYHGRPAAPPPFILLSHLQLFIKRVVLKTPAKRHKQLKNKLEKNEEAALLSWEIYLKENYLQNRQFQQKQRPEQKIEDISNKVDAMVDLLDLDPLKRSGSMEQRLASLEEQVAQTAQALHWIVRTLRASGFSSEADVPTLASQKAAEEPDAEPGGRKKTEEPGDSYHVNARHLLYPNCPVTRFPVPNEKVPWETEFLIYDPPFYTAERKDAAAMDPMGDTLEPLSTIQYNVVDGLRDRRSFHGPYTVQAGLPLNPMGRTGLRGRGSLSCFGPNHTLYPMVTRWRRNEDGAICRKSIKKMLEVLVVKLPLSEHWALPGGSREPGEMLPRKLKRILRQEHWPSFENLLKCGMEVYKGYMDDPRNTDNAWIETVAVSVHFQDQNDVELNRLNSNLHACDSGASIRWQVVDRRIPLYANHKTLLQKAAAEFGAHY
Description: as §1, with “All the cells were seeded on 96-well coverslips (3 x 3 mm, WHB) and cultured at 37 °C under a humidified atmosphere containing 5% CO2.” left out
as §2

[9] = system: layer 5 cortical pyramidal neurons from adult Trpm2−/− mice; assay: Whole-cell current-clamp, intrinsic excitability in brain slices, Trpm2-/-; format: cell-based, mouse
[10] = system: tMCAO Trpm2+/+ mice; assay: tMCAO ischemia model, infarct volume by TTC staining, Trpm2+/+ mice; format: in vivo, mouse; settings: for infarct volume: 24 h after tMCAO
[11] = target: T4, hTRPM2 R1433A (Homo sapiens, UniProt O94759, R1433A); assay: Whole-cell patch-clamp, C-terminal NUDT9-H domain mutant; format: cell-based; settings: bilirubin
T4 construct: expressed in transfected cells; host or cells: HEK293T cells, transient transfection, GFP cDNA co-transfected as a separate marker
T4 sequence (O94759 whole entry R1433A): as the sequence (O94759 whole entry R302A/R358A) above, with A302R, A358R, R1433A counted along it
Description: as §1, with “All the cells were seeded on 96-well coverslips (3 x 3 mm, WHB) and cultured at 37 °C under a humidified atmosphere containing 5% CO2.” left out
as §2

[12] = system: hTRPM2 Ca2+ binding site mutants; assay: Whole-cell patch-clamp, Ca2+ binding site mutants; format: cell-based, human; settings: mutations disabling binding sites for Ca2+
[13] = system: layer 5 cortical pyramidal neurons from adult Trpm2+/+ mice; assay: Whole-cell current-clamp, intrinsic excitability in brain slices, Trpm2+/+; format: cell-based, mouse
[14] = Serum and CSF TB / UCB measurement after bilirubin injection and tMCAO; format: in vivo, mouse
Description: Trpm2^+/+, Trpm2^-/- and D1066A C57BL/6 mice were anesthetized by intraperitoneal injection of pentobarbital (55 mg/kg) 24 hours before tMCAO operation, and then fixed in the stereotactic setup (RWD Life Science). The skin above the skull from the base of the neck up to in between the eyes was cut open. A hole directly above the right ventricle was made with a grinding drill to allow insertion of the micro syringe into the lateral ventricle (coordinates: 1.1 mm laterally to the right and 0.5 mm posterior of the bregma, 2.5 mm deep). CSF was collected by using the micro injection pump (speed: 0.2 μl/min), after which the syringe was withdrawn, and the skin was sutured. The mice were removed from the stereotactic setup and 50 μl blood was taken through the orbital venous plexus. Mice were then placed on 37 °C heating blanket till they regained consciousness and returned to the cage. 1 or 24 hours after tMCAO, animals were anesthetized using a 2% isoflurane-oxygen mixture. CSF and blood were collected in the same way before sacrifice. All samples were centrifuged at 3000 r/min. Total bilirubin concentration of supernatants was measured with the Bilirubin Reagent Kit (Sigma). Samples were transferred to a 96-plates and mixed with reaction solution before measurements of their absorbance were made at 530 nm 10 minutes later. UCB concentration was measured with UnaG, a bilirubin-inducible fluorescent protein from Japanese eel muscle. For standard calibration curve of fluorescence intensity, a 100 μl reaction mixture containing 50 μl UnaG solution (1 μM) and 50 μl artificial bilirubin solution with concentration gradient (1.4278 μM, 0.7139 μM, 0.3573 μM, 0.1785 μM, 0.0893 μM and 0 μM) was prepared. After 10 minutes of reaction, the fluorescence intensity was detected by microplate reader (Synergy H1M, Bio Tek) with fluorescence filters for excitation and emission wavelengths of 485 and 528 nm, respectively. Serum and CSF samples were diluted 20-fold with PBS and fluorescence intensity was measured. The UCB levels were extrapolated from the standard curve.

[15] = target: T5, hTRPM2 K928A/D1069A double mutant (Homo sapiens, UniProt O94759, D1069A/K928A); assay: Whole-cell patch-clamp, bilirubin-binding cavity double mutant; format: cell-based; settings: 9 μM extracellular
T5 construct: expressed in transfected cells; host or cells: HEK293T cells, transient transfection, GFP cDNA co-transfected as a separate marker
T5 sequence (O94759 whole entry K928A/D1069A): as the sequence (O94759 whole entry R302A/R358A) above, with A302R, A358R, K928A, D1069A counted along it
Description: as §1, with “All the cells were seeded on 96-well coverslips (3 x 3 mm, WHB) and cultured at 37 °C under a humidified atmosphere containing 5% CO2.” left out
as §2

T1 sequence (O94759 whole entry): as the sequence (O94759 whole entry R302A/R358A) above, with A302R, A358R counted along it

O=C(O)c1ccccc1Nc1cccc(C(F)(F)F)c1 [FFA, flufenamic acid]
bilirubin-increased opening probability (Po) ([1]; FFA co-application, n = 12): reversed

C=CC1=C(C)/C(=C/c2[nH]c(Cc3[nH]c(/C=C4\NC(=O)C(C)=C4C=C)c(C)c3CCC(=O)O)c(CCC(=O)O)c2C)NC1=O [bilirubin, Bilirubin]
mortality of cortical neurons [2]: 60.84% ± 2.13%
activation of mutant TRPM2 currents [3]: eliminated the activation of the TRPM2 channel by ADPR but not by bilirubin
activation of mutant TRPM2 currents [4]: effectively activated
hyperexcitability in cortical pyramidal neurons [5]: did not induce the hyperexcitability
infarct volume ([6]; Trpm2−/− mice, bilirubin 50 μg/g i.p. 30 min prior to 30 min tMCAO, n = 15): 25.69% ± 4.46%
infarct volume ([6]; female Trpm2−/− mice, n = 5): 30.63 ± 8.71%
infarct volume ([6]; male Trpm2−/− mice, n = 10): 23.22 ± 5.25%
magnitude of the TRPM2 currents evoked by voltage ramps ([7]; bilirubin 9 μM, −100 to +100 mV, control solution): increased
activation of TRPM2 currents ([7]; bilirubin in the presence of PJ-34 (10 μM)): remained effective
TRPM2 currents ([7]; bilirubin, intracellular ADPR 5 μM (subthreshold)): increased TRPM2 currents
TRPM2 currents ([7]; bilirubin, intracellular ADPR 500 μM (saturated)): failed to do so
activation of the TRPM2 channel ([7]; bilirubin, intracellular BAPTA 30 mM replacing EGTA): remained capable of activating
Hillslope ([7]; concentration-response fit with the Hill equation, n = 4): 1.0
EC50 ([7]; concentration-response fit with the Hill equation, n = 4, read-out: EC50 for evoked TRPM2 currents): 1.92 µM
activation of mutant TRPM2 currents [8]: remained responsive
excitability of cortical neurons ([9]; Trpm2−/− slices, bilirubin for 5 and 20 min, synaptic blockers present): absent
spike amplitude ([9]; Trpm2−/−, 20 min after bilirubin application, 2.5 nA current in 0.3 ms): significantly attenuated
infarct volume ([10]; Trpm2+/+ mice, bilirubin 50 μg/g i.p. 30 min prior to 30 min tMCAO, n = 14): 55.31% ± 3.68%
severity of brain damage, Bil group vs Ctrl group ([10]; day 7 after tMCAO): significantly higher
infarct volume ([10]; female Trpm2+/+ mice, n = 4): 49.56 ± 7.40%
infarct volume ([10]; male Trpm2+/+ mice, n = 10): 57.61 ± 4.24%
activation of mutant TRPM2 currents [11]: remained responsive
single-channel currents ([1]; bilirubin 300 nM, at −40 mV, outside-out): −2.02 ± 0.05 pA
opening probability (Po) ([1]; bilirubin perfusion, n = 12): significantly increased
slope conductance (single-channel) ([1]; bilirubin-driven current-voltage relationship, −80 to +80 mV, n = 4–7): 76.29 ± 7.85 pS
activation of TRPM2 currents by bilirubin [12]: did not prevent the activation
excitability of cortical neurons ([13]; Trpm2+/+ slices, bilirubin for 5 and 20 min, synaptic blockers present): significantly increased
spike amplitude ([13]; Trpm2+/+, 20 min after bilirubin application, 2.5 nA current in 0.3 ms): significantly attenuated
serum and CSF UCB concentration, Bil group vs Ctrl group ([14]; D1066A KI mice, 24 h after tMCAO, n = 9): comparable
UCB concentration in serum and CSF, Bil group vs Ctrl group ([14]; Trpm2+/+ mice, 24 h after tMCAO): much higher
level of UCB, Bil group vs Ctrl group ([14]; Trpm2−/− mice, 24 h after tMCAO): did not change
TB levels in serum and CSF vs saline ([14]; mice injected with bilirubin 50 μg/g i.p., after tMCAO): markedly higher
activation of mutant TRPM2 currents [15]: completely lost its ability to activate

From article PMC10191619, “Bilirubin gates the TRPM2 channel as a direct agonist to exacerbate ischemic brain damage” (Neuron, 2023)
